Measurements published in patent publication US20250388529A1, “N-Substituted Phenylalkylamines and Their Use as Therapeutic Agents” (priority 2023, published 2025).
Values joined by “and” are separate entries in the source; they are usually repeats but may differ in a detail not shown here. Identical values can stand only once.

What was measured:
[1] = target: T1, HiBiT-5-HT2A (Homo sapiens, UniProt P28223); test: NanoBRET kinetic measurement of ligand binding to HiBiT-5-HT2A (Motulsky-Mahan)
T1 construct: expressed in transfected cells; host or cells: HEK293 (transient)
T1 sequence (P28223 whole entry): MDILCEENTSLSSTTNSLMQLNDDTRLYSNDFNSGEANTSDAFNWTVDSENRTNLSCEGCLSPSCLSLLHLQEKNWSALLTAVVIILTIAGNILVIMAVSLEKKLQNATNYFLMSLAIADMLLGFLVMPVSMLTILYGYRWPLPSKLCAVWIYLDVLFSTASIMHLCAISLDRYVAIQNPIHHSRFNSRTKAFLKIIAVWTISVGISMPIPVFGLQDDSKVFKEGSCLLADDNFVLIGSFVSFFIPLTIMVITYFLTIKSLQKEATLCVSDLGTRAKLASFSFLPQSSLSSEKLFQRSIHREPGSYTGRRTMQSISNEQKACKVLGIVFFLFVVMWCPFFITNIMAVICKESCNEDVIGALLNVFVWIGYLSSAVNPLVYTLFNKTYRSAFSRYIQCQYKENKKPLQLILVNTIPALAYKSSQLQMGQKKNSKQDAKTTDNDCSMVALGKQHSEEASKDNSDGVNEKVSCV

[2] = target: human Nav1.1 (Homo sapiens, UniProt P35498); test: Manual whole-cell patch clamp sodium current recording, HEK cells stably expressing human Nav1.1; format: cell-based; conditions: 10 μM
Experimental: Cell lines: Human Embryonic Kidney (HEK) 293 cells stably expressing human VGSC a subunit Nav1.1 (GenBank accession number NP_008851.3) were a gift from Dr. Massimo Mantegazza. Human VGSC β1 subunit GenBank accession number NP_001028.1) cDNA was transfected into this line to generate a second, stable line. Cells were cultured in Dulbecco's Modified Eagle Medium containing (4.5 g/L D-glucose, L-glutamine, 110 mg/L sodium pyruvate, 200 μg/mL G418, 100 U/mL penicillin/streptomycin). All cells were maintained in an incubator at 37° C. with 5% CO2.
Manual Sodium Current Recording: Sodium current (INa) was measured at room temperature using the manual whole-cell patch clamp technique with previously described electrophysiological methods (Chen et al., J Biol Chem., 2012; 287 (46): 39061-39069). Cells were plated on 12 mm diameter clear glass poly-D-lysine coated coverslips (Neuvitro) and used for electrophysiological recordings within 48 hours after plating. Cells were identified with an AIR upright confocal microscope (Nikon). […] Data were acquired with a Digidata 1440A interface (Molecular Devices) and analyzed using pClamp10 offline. […] All manual whole-cell INa recorded under XOB conditions was conducted after 3.9 minutes of perfusion unless indicated otherwise.

[3] = system: wildtype mouse prefrontal cortex layer V pyramidal neurons; test: Brain slice current clamp recording of membrane properties and action potential firing; format: cell-based
Experimental: Animals: Wildtype C57BL/6J mice were obtained from the Jackson Labs. Male and female pups, age postnatal day (P) 17-23, were used for the electrophysiological experiments. Animals were housed in the Unit for Laboratory Animal Medicine at the University of Michigan. All procedures were performed in accordance with the NIH and approved by the University of Michigan IACUC.
Brain Slice Preparation: Acute brain slices were prepared as described previously (Hull et al., Ann Clin Transl Neur., 2020; 7 (11): 2137-2149). Briefly, mice were anesthetized with isoflurane anesthesia and decapitated. Brains were carefully removed from the skull and placed in ice-cold carbogen-aerated slice solution containing (in mM): 110 sucrose, 62.5 NaCl, 2.5 KCl, 6 MgCl2, 1.25 KH2PO4, 26 NaHCO3, 0.5 CaCl2), 20 D-glucose, pH 7.35-7.40. Brains were blocked and slices were cut using a vibrating microtome (Electron Microscopy Sciences) in 250 μm thick coronal sections from prefrontal cortex. Slices were incubated in an aerated holding chamber containing slice solution for 30 minutes at room temperature and then incubated in 1:1 slice: artificial cerebrospinal solution (ACSF) for 30 minutes at 35° C. ACSF contained in mM (125 NaCl; 2.5 KCl; 1 MgCl2; 1.25 KH2PO4; 26 NaHCO3; 2 CaCl2); and 20 D-glucose (pH 7.35-7.40). Slices were then aerated in a holding chamber containing 100% ACSF for at least 30 min at room temperature before recording.
Action Potential Recording and Analysis: Individual brain slices were placed in an RC-26 recording chamber (Warner Instruments) and superfused with aerated ACSF at a flowrate of 2-3 mL/min equipped with an inline heater (Warner Instruments) to maintain the recording temperature at 33-35° C. Layer 5 pyramidal neurons were identified based on their large soma size, shape, and location using an AIR upright confocal microscope (Nikon) equipped with IR-DIC optics and a 40× water immersion objective. Only vertically oriented pyramidal cells were selected for recording. […] The junction potential was calculated to be 14.3 mV using the P-clamp junction potential calculator and all values presented in the study are uncorrected. Following break in at −94.3 mV in voltage clamp mode, the resting membrane potential was defined as the membrane potential in current clamp <10 s after initial break in for baseline or immediately after XOB perfusion. Repetitive action potential firing was elicited in whole-cell current clamp from the resting membrane potential in 1 s long current injections in 10 pA steps from −20 pA to +400 pA. There was a 1 s long 0 pA current injection between each sweep. Data were acquired at 20 kHz and were filtered at 10 kHz. Cells with an access resistance measured in voltage clamp >20 MΩ or RMP more depolarized than −64.3 mV were not used. Access resistance and pipette capacitance were compensated using bridge balance. Whole cell capacitance was measured using P-clamp whole cell capacitance compensation in voltage clamp with 10 mV depolarizing steps from −94.3 mV. Automated action potential (AP) quantification and analysis was performed using custom MATLAB (MathWorks) software. APs were defined as the voltage crossing 0 mV after a dV/dt>10 mV/ms, defined here as the AP threshold. Input resistance was calculated using Ohm's law with a −10 pA current injection from the resting membrane potential after 250 ms.

[4] = Chance observation of local anesthetic effect upon contact with mucous membranes; format: in vivo

For `COc1cc(CCNCCCCCCOCCCCc2ccccc2)c(OC)cc1Br` [XOB, N-(4-bromo-2,5-dimethoxyphenethyl)-6-(4-phenylbutoxy)hexan-1-amine], which “association rate at 5-HT2A relative to serotonin (in words)” value [1] is on record?
The value was “two orders of magnitude slower”.

And the “association rate at 5-HT2A, fold slower than serotonin” value [1]?
The value was “about 24 fold”.

And the “original baseline INa density at 0 mV recovered after washout” value ([2]; 10 minutes of washing out)?
Its value is 17.5±3.64%.

What about the “reduction of mean Nav1.1 peak INa density at 0 mV compared to baseline” value ([2]; acute perfusion, three cells) of the same compound?
The value was 94.1±1.31%.

What about the “First AP Max dv/dt” value ([3]; 10 μM) of the same compound?
The value was 402.68±46.20 mV/ms and 402.68 mV/ms.

And the “First AP Min dv/dt” value ([3]; 10 μM)?
Its value is −91.32±8.95 mV/ms.

And the “First AP Peak Amplitude” value ([3]; 10 μM)?
Its value is 41.21±2.92 mV and 41.21 ± 2.29 mV.

And the “First AP Threshold” value ([3]; 10 μM)?
Its value is −38.43±1.23 mV.

And the “Input Resistance” value ([3]; 10 μM)?
The value was 100.08±30.18 MΩ.

What about the “Max Firing Rate @ 300 pA” value ([3]; 10 μM) of the same compound?
The value was 12.25 ± 1.53 Hz.

And the “Max Firing Rate @ 400 pA” value ([3]; 10 μM)?
The value was 14±1.82 Hz.

And the “Resting Vm” value ([3]; 10 μM)?
Its value is −63.25±1.15 mV.

And the “Spike Width” value ([3]; 10 μM)?
The value was 0.76 ± 0.06 ms.

What about the “depolarization of the resting membrane potential” value ([3]; 10 μM vs baseline) of the same compound?
The value was “+8.45±1.15 mV”.

And the “reduction in maximum firing frequency at 400 pA current injections” value ([3]; 10 μM vs baseline)?
The value was about 12 Hz.

What about the local anesthetic effect [4] of the same compound?
The local anesthetic effect was “profound and long-lasting local anesthetic effect”.
